A word on the IC50: it is the concentration at which inhibition is half-maximal.

The assay concerns the target T1, human Glucose-dependent Insulinotropic Polypeptide Receptor (hGIPR) (Homo sapiens, UniProt P48546).
T1 sequence (P48546 22-466): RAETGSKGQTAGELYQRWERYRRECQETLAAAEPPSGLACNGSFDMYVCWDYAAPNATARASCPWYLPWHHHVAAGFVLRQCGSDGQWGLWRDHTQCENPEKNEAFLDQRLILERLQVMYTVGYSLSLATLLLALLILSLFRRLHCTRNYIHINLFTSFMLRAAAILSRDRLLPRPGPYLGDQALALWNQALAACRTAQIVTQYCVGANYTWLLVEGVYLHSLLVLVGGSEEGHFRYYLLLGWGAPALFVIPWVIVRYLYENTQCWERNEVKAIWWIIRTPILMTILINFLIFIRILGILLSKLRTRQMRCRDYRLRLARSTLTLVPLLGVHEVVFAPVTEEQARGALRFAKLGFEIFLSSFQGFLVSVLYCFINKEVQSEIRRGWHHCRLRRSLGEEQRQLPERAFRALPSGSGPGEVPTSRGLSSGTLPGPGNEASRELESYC
The assay is described as follows: Functional in vitro GIPR antagonist potency assay (cAMP HTRF, CHO-K1 cells stably expressing hGIPR, hGIP stimulation at about EC80). The assay is classed as cell-based. Particulars: geometric mean, hGIP at estimated EC80, examples marked ^2: overall geometric mean of multiple forms (including salts) tested. In outline:
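HTRF quantification of cAMP after stimulation with hGIP at an estimated EC80 for 30 min at 37 °C. Before stimulation, hGIPR-expressing CHO-K1 cells were exposed 2 h to test compound in IBMX-containing buffer, with 0.5% DMSO final. Percent effect is referenced to agonist alone (0%) and to 80 μM of a reference antagonist (100%), and runs required the agonist concentration to fall within the on-the-day EC50–EC90.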
On to `CC(C)c1ccc(NC(=O)N2CCC[C@@H]2C(=O)Nc2ccc(-c3ccc(O)cc3F)cc2)cc1` [Example 51, (2R)-N^2-(2′-fluoro-4′-hydroxy[1,1′-biphenyl]-4-yl)-N^1-[4-(propan-2-yl)phenyl]pyrrolidine-1,2-dicarboxamide], for which the IC50 is 280 nM.

On to `Cc1cc(-c2ccc(NC(=O)[C@H]3CCCN3C(=O)Nc3ccc(C(C)C)cc3)cc2)ccc1C(N)=O` [Example 52, (2R)-N^2-(4′-carbamoyl-3′-methyl[1,1′-biphenyl]-4-yl)-N^1-[4-(propan-2-yl)phenyl]pyrrolidine-1,2-dicarboxamide], for which the concentration for half-maximal inhibition (IC50) was 120 nM.

`Cc1cc(-c2ccc(NC(=O)[C@H]3CCCN3C(=O)Nc3ccc(C(C)C)cc3)cc2)cc(C)c1C(=O)O` [Example 53, 3,5-dimethyl-4′-[(1-{[4-(propan-2-yl)phenyl]carbamoyl}-D-prolyl)amino][1,1′-biphenyl]-4-carboxylic acid]: the IC50 was 15 nM.

`CC(C)c1ccc(NC(=O)N2CCC[C@@H]2C(=O)Nc2ccc(-c3ccc(O)c(F)c3)cc2)cc1` [Example 54, (2R)-N^2-(3′-fluoro-4′-hydroxy[1,1′-biphenyl]-4-yl)-N^1-[4-(propan-2-yl)phenyl]pyrrolidine-1,2-dicarboxamide]: the IC50 was 140 nM.

Turning to `O=C(O)c1ccc(-c2ccc(NC(=O)[C@H]3CCCN3C(=O)Nc3ccc(C(F)(F)F)c(Cl)c3)cc2)cn1` [Example 55, 5-{4-[(1-{[3-chloro-4-(trifluoromethyl)phenyl]carbamoyl}-D-prolyl)amino]phenyl}pyridine-2-carboxylic acid], the half-maximal inhibitory concentration (IC50) was 7.6 nM.

As for `CC(C)c1ccc(NC(=O)N2CCC[C@@H]2C(=O)Nc2ccc(-c3ccc(C(=O)O)cc3F)cc2)cc1` [Example 56, 2-fluoro-4′-[(1-{[4-(propan-2-yl)phenyl]carbamoyl}-D-prolyl)amino][1,1′-biphenyl]-4-carboxylic acid], the half-inhibitory concentration (IC50) was 6.3 nM.

Turning to `Cc1cc(C(=O)O)ncc1-c1ccc(NC(=O)[C@H]2CCCN2C(=O)Nc2ccc(C(C)C)cc2)cc1` [Example 57, 4-methyl-5-{4-[(1-{[4-(propan-2-yl)phenyl]carbamoyl}-D-prolyl)amino]phenyl}pyridine-2-carboxylic acid], the IC50 was 65 nM.

As to `Cc1cc(-c2ccc(NC(=O)[C@H]3CCCN3C(=O)Nc3ccc(C(C)C)cc3)cc2)cnc1C(=O)O` [Example 58, 3-methyl-5-{4-[(1-{[4-(propan-2-yl)phenyl]carbamoyl}-D-prolyl)amino]phenyl}pyridine-2-carboxylic acid], the 50% inhibitory concentration (IC50) was 50 nM.

For the compound `O=C(O)c1ccc(-c2ccc(NC(=O)[C@H]3CCCN3C(=O)Nc3cc(Cl)cc(Cl)c3)cc2)cc1` [Example 59, 4′-({1-[(3,5-dichlorophenyl)carbamoyl]-D-prolyl}amino)[1,1′-biphenyl]-4-carboxylic acid], the concentration for half-maximal inhibition (IC50) is 35 nM.

In the case of `Cc1cc(C(=O)O)ccc1-c1ccc(NC(=O)[C@H]2CCCN2C(=O)Nc2ccc(C(C)C)cc2)cn1` [Example 60, 3-methyl-4-{5-[(1-{[4-(propan-2-yl)phenyl]carbamoyl}-D-prolyl)amino]pyridin-2-yl}benzoic acid], the half-maximal inhibitory concentration (IC50) was 21 nM.

Turning to `CC(C)c1ccc(NC(=O)N2CCC[C@@H]2C(=O)Nc2ccc(-c3ccc(C(=O)O)cc3)cc2)nc1` [Example 61, 4′-[(1-{[5-(propan-2-yl)pyridin-2-yl]carbamoyl}-D-prolyl)amino][1,1′-biphenyl]-4-carboxylic acid], the half-inhibitory concentration (IC50) is 150 nM.

As to `CC(C)c1ccc(NC(=O)N2CCC[C@@H]2C(=O)Nc2ccc(-c3ccc(C(=O)O)cc3)cc2)cn1` [Example 62, 4′-[(1-{[6-(propan-2-yl)pyridin-3-yl]carbamoyl}-D-prolyl)amino][1,1′-biphenyl]-4-carboxylic acid], the IC50 is 110 nM.

For `O=C(O)c1ccc(-c2ccc(NC(=O)[C@H]3CCCN3C(=O)Nc3ccc(Br)cc3)cc2)cc1` [Example 63, 4′-({1-[(4-bromophenyl)carbamoyl]-D-prolyl}amino)[1,1′-biphenyl]-4-carboxylic acid], the IC50 is 6.2 nM.

With `CC(C)c1ccc(NC(=O)N2CCC[C@@H]2C(=O)Nc2ccc(-c3ccc(C(=O)O)cc3)cc2)cc1F` [Example 64, 4′-[(1-{[3-fluoro-4-(propan-2-yl)phenyl]carbamoyl}-D-prolyl)amino][1,1′-biphenyl]-4-carboxylic acid], the IC50 was 2.9 nM.

In the case of `CC(C)c1ccc(NC(=O)N2CCC[C@@H]2C(=O)Nc2ccc(-c3ccc(C(=O)O)nc3)cc2F)cc1` [Example 65, 5-{3-fluoro-4-[(1-{[4-(propan-2-yl)phenyl]carbamoyl}-D-prolyl)amino]phenyl}pyridine-2-carboxylic acid], the IC50 is 13 nM.

Consider `CC(C)c1ccc(NC(=O)N2CCC[C@@H]2C(=O)Nc2ccc(-c3cccc(O)c3F)cc2)cc1` [Example 66, (2R)-N^2-(2′-fluoro-3′-hydroxy[1,1′-biphenyl]-4-yl)-N^1-[4-(propan-2-yl)phenyl]pyrrolidine-1,2-dicarboxamide], for which the IC50 is 390 nM.

As to `Cc1cc(C(=O)O)cc(C)c1-c1ccc(NC(=O)[C@H]2CCCN2C(=O)Nc2ccc(C(C)C)cc2)cc1` [Example 67, 2,6-dimethyl-4′-[(1-{[4-(propan-2-yl)phenyl]carbamoyl}-D-prolyl)amino][1,1′-biphenyl]-4-carboxylic acid], the half-inhibitory concentration (IC50) is 14 nM.

Regarding `CC(C)c1ccc(NC(=O)N2CCC[C@@H]2C(=O)Nc2ccc(-c3ccc(C(=O)O)c(C(F)(F)F)c3)cc2)cc1` [Example 68, 4′-[(1-{[4-(propan-2-yl)phenyl]carbamoyl}-D-prolyl)amino]-3-(trifluoromethyl)[1,1′-biphenyl]-4-carboxylic acid], the IC50 is 38 nM.

Regarding `Cc1cc(-c2ccc(NC(=O)[C@H]3CCCN3C(=O)Nc3ccc(C(C)C)cc3)cc2)cc(F)c1C(=O)O` [Example 69, 3-fluoro-5-methyl-4′-[(1-{[4-(propan-2-yl)phenyl]carbamoyl}-D-prolyl)amino][1,1′-biphenyl]-4-carboxylic acid], the half-inhibitory concentration (IC50) is 47 nM.

Take `CC(C)c1ccc(NC(=O)N2CCC[C@@H]2C(=O)Nc2ccc(-c3cc(F)c(C(=O)O)cc3Cl)cc2)cc1` [Example 70, 2-chloro-5-fluoro-4′-[(1-{[4-(propan-2-yl)phenyl]carbamoyl}-D-prolyl)amino][1,1′-biphenyl]-4-carboxylic acid]: the IC50 was 49 nM.

For `CC(C)c1ccc(NC(=O)N2CCC[C@@H]2C(=O)Nc2ccc(-c3ccc(C(=O)O)cc3C(C)C)cc2)cc1` [Example 71, 2-(propan-2-yl)-4′-[(1-{[4-(propan-2-yl)phenyl]carbamoyl}-D-prolyl)amino][1,1′-biphenyl]-4-carboxylic acid], the IC50 was 2.5 nM.

As to `O=C(O)c1ccc(-c2ccc(NC(=O)[C@H]3CCCN3C(=O)Nc3ccc(C(F)(F)F)nc3)cc2)cc1` [Example 72, 4′-[(1-{[6-(trifluoromethyl)pyridin-3-yl]carbamoyl}-D-prolyl)amino][1,1′-biphenyl]-4-carboxylic acid], the 50% inhibitory concentration (IC50) is 69 nM.

For the compound `O=C(O)c1ccc(-c2ccc(NC(=O)[C@H]3CCCN3C(=O)Nc3ccc(Cl)c(Cl)c3)cc2)cc1` [Example 73, 4′-({1-[(3,4-dichlorophenyl)carbamoyl]-D-prolyl}amino)[1,1′-biphenyl]-4-carboxylic acid], the half-maximal inhibitory concentration (IC50) is 12 nM.

(Values after patent US20240366598A1, “GLUCOSE-DEPENDENT INSULINOTROPIC POLYPEPTIDE RECEPTOR ANTAGONISTS AND USES THEREOF” (Pfizer Inc., priority 2023, published 2024).)
